Series [1] deals with herpes simplex. Description: Activity against herpes simplex (general statement). Details: species or system herpes simplex virus.
The test system of a further series is herpes simplex virus. The series is described as follows: Anti-HSV activity, plaque reduction assay. Type of series: cell-based. On the procedure: The inhibiting effect of the compounds of Example 1 and 2 against herpes simplex virus were determined by the plaque reduction assay.
Series [2] concerns herpes simplex. The conditions noted are these: prior art compound; cited from earlier work.
Another series deals with CMV. The series is described as follows: Activity against CMV infections (general statement). Details: species or system cytomegalovirus.
Series [3] has as its system EBV. The series is described as follows: Anti-EBV activity (method described by Nonogama l. Pagano, 1971). In kind it is cell-based, Epstein-Barr virus. As to conditions: human gammaherpesvirus 4. On the procedure: The inhibitory effect of the compound of Example 2 against EBV was determined by the method described by Nonogama l. Pagano, 1971, Nature: New Biology, Vol. 233, 103-104.

Series [4] concerns EBV. The series is described as follows: Activity against EBV infections (general statement). Details: species or system Epstein-Barr virus.
A further series concerns dogs. The series is described as follows: Toxicity in dogs, intravenous route. In kind it is in vivo, dog. The conditions noted are these: 60 mg/kg/day. On the procedure:
The toxicity of the compound of Example 2 was determined by administering the compound to dogs at a dosage of 60 mg/kg/day, by the intravenous route.

This is an account of results in patent publication US4714701A, “Antiviral compounds” (Burroughs Wellcome Co., priority 1985, dated 1987).

The structures appear in SMILES notation. Where two headings read alike, the source gives them in different places.

Usually IC50 stands for the concentration at which inhibition is half-maximal. In the case of `Nc1nc2c(nc(N)n2COC(CO)CO)c(=O)[nH]1` [Example 1, 8-Amino-9-[(2-hydroxy-1-hydroxymethylethoxy)methyl]guanine], the “activity against herpes simplex” value in the series with herpes simplex [1] is given as “particularly high activity”. The same molecule returned an IC50 in the series on herpes simplex virus of 0.5 µM.
As to `Nc1nc2c(ncn2COCCO)c(=O)[nH]1` [acyclovir, 9-(2-hydroxyethoxymethyl)guanine], in the series with herpes simplex [2], the “activity against herpes simplex” value is recorded as “particularly good activity”.
Turning to `Nc1nc2c(nnn2COC(CO)CO)c(=O)[nH]1` [Example 2, 5-Amino-3,6-dihydro-3-[(2-hydroxy-1-hydroxymethylethoxy)methyl]-7H-1,2,3-triazolo[4,5-d]pyrimidin-7-one], in the series on CMV, the “activity against CMV infections” value is listed as “especially potent activity”. Further, the results for the IC50 with EBV [3] and in the series with herpes simplex virus were 1 to 10 µM and 27.4 µM, respectively. Moreover, in the series with EBV [4], the “activity against EBV infections” value is “especially potent activity”. The toxic effects entry with dogs is on record as “No toxic effects were noted”.
